Experimental data as given in paper PMC9610298, “Synthesis, Biological Evaluation and Machine Learning Prediction Model for Fluorinated Cinchona Alkaloid-Based Derivatives as Cholinesterase Inhibitors” (Pharmaceuticals, 2022).

How the values were obtained:
[1] = target: recombinant human AChE (Homo sapiens, UniProt P22303); assay: Reversible inhibition of AChE, Ellman method, enzyme-inhibitor dissociation constants; assay type: biochemical; details: ± standard error; ATCh substrate, 25 °C, pH 7.4
recombinant human AChE, sequence (P22303 32-614): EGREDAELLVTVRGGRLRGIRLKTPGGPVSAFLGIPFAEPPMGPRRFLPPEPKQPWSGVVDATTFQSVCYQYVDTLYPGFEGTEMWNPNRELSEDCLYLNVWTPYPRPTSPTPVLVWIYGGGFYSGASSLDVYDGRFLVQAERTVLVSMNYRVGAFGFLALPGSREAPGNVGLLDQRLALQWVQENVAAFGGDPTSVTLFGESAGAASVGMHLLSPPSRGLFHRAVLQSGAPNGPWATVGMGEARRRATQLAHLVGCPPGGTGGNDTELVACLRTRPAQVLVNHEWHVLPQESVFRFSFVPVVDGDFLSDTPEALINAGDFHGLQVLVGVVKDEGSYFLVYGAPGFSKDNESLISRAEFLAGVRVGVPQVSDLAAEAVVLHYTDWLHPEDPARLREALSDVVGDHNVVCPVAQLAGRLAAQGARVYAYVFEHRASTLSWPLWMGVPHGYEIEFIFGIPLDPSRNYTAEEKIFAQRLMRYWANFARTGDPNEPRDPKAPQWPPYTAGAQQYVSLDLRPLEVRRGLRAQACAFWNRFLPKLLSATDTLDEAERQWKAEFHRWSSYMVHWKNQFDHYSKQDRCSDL
Description: (§1) As a source of BChE, a purified human BChE, and as AChE, a recombinant human AChE was used, both enzymes kindly provided by Dr. F. Nachon (Département de Toxicologie, Armed Forces Biomedical Research Institute, France). The concentrated stocks of enzymes (BChE: 5.6 µM; AChE: 0.20 µM) were diluted in a phosphate sodium buffer 0.1 M (pH 7.4) containing 0.1% BSA before starting the experiments.
(§2) Enzyme activities were measured spectrophotometrically by the Ellman method at […] using 0.30 mM DTNB as thiol reagent, ATCh as substrate and water in 0.1 M phosphate buffer, pH 7.4. For the inhibition measurements, the reaction mixture contained tested compounds instead of water. […] Measurements were done at 25 °C on a Tecan Infinite M200Pro plate reader (Austria). A detailed description of measurement protocol was described previously.
(§3) The reversible inhibition of BChE and AChE by tested compounds was measured by determining the decrease of enzyme activity towards ATCh in their presence. The activities of the enzymes were measured at different substrate concentrations ([S]; 0.050–0.50 mM) in the absence (v0) and presence (vi) of the given tested compounds concentration ([I]; 0.050–200 µM, depending on the compound) selected to inhibit the enzymes for 20–80%. At least three concentrations of inhibitors for each substrate concentration were used in at least three experiments. The apparent dissociation inhibition constant (Ki,app) was calculated applying the Hunter-Downs equation and linear regression analysis (1):(1) Ki,app=vi/v0−vi⋅I=KI+KI/KS⋅S where y-intercept determines the enzyme-inhibitor dissociation constants (K(I)), while x-intercept determines the enzyme-substrate dissociation constant, K(S). The determination of kinetic constants was carried out using the GraphPadPrism 6.0 program (GraphPad Software, San Diego, CA, USA).

[2] = target: purified human BChE (Homo sapiens, UniProt P06276); assay: Reversible inhibition of BChE, Ellman method, enzyme-inhibitor dissociation constants; assay type: biochemical; details: for SI, selective index Ki(AChE)/Ki(BChE): times higher preference for BChE over AChE
purified human BChE, sequence (P06276 29-602): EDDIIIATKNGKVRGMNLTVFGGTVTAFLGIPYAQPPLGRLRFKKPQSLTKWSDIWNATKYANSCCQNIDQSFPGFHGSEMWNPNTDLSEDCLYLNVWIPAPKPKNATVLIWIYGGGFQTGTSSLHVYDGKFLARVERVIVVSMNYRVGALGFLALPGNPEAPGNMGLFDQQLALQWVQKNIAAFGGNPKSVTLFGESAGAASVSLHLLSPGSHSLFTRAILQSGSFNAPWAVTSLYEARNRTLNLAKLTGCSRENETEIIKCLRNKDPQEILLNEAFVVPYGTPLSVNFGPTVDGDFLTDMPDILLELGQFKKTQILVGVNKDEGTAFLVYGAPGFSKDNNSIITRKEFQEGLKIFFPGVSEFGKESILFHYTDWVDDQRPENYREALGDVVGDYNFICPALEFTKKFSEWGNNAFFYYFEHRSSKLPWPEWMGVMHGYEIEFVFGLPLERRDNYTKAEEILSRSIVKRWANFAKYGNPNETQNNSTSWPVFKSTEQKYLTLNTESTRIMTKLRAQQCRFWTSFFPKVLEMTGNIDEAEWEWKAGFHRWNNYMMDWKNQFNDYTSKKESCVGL
Description: as §1, §2, §3

[3] = ± standard error, ATCh substrate, 25 °C, pH 7.4

Row | SMILES | Ki [1] [µM] | SI, selective index Ki(AChE)/Ki(BChE) [2] | Ki [2, 3] [nM] | times higher affinity of BChE for DHCN over DHCD ([2]; unsubstituted 10,11-dihydro compounds) | Ki ([2]; stated in text as around) [nM] | Stereoselectivity Ki(CN/CD) BChE ([2]; ratio > 1: higher affinity toward CD over CN pseudo-enantiomer)
1 | CCC1C[N+]2(Cc3cccc(F)c3)CCC1C[C@H]2[C@H](O)c1ccnc2ccccc12 (some centres unmarked) [DHCD 3F] | 27 ± 2 | 84 | 300 ± 20 | – | – | –
2 | C=CC1C[N+]2(Cc3c(F)cccc3F)CCC1C[C@@H]2[C@@H](O)c1ccnc2ccccc12 (some centres unmarked) [CN 2,6F, N-(2,6-difluorobenzyl)cinchoninium bromide] | 30 ± 2 | 5.8 | 5200 ± 200 | – | – | –
3 | C=CC1C[N+]2(Cc3ccc(F)cc3F)CCC1C[C@@H]2[C@@H](O)c1ccnc2ccccc12 (some centres unmarked) [CN 2,4F, N-(2,4-difluorobenzyl)cinchoninium bromide] | 27 ± 1 | 4.5 | 6000 ± 200 | – | – | –
4 | C=CC1C[N+]2(Cc3cccc(F)c3F)CCC1C[C@@H]2[C@@H](O)c1ccnc2ccccc12 (some centres unmarked) [CN 2,3F, N-(2,3-difluorobenzyl)cinchoninium bromide] | 46 ± 3 | 4.8 | 9600 ± 400 | – | – | –
5 | CC[C@H]1CN2CC[C@H]1C[C@@H]2[C@@H](O)c1ccnc2ccccc12 [DHCN, 10,11-dihydrocinchonine] | – | – | 1200 ± 100 | 16 | – | –
6 | C=CC1C[N+]2(Cc3cccc(F)c3)CCC1C[C@H]2[C@H](O)c1ccnc2ccccc12 (some centres unmarked) [CD 3F, N-(meta-fluorobenzyl)cinchonidinium bromide] | 40 ± 2 | 533 | 75 ± 5 | – | ~76 | –
7 | C=CC1C[N+]2(Cc3ccccc3)CCC1C[C@@H]2[C@@H](O)c1ccnc2ccccc12 (some centres unmarked) [CN Bzl] | 121 ± 12 | 42 | 2900 ± 300 | – | – | –
8 | C=CC1C[N+]2(Cc3ccc(F)c(F)c3)CCC1C[C@H]2[C@H](O)c1ccnc2ccccc12 (some centres unmarked) [CD 3,4F] | 13 ± 1 | 10 | 1300 ± 100 | – | – | –
9 | CCC1C[N+]2(Cc3cccc(OC(F)(F)F)c3)CCC1C[C@H]2[C@H](O)c1ccnc2ccccc12 (some centres unmarked) [DHCD 3OCF3, N-(3-trifluoromethoxybenzyl)-10,11-dihydrocinchonidinium bromide] | 36 ± 1 | 5 | 6800 ± 300 | – | – | –
10 | CCC1C[N+]2(Cc3ccc(C(F)(F)F)cc3)CCC1C[C@H]2[C@H](O)c1ccnc2ccccc12 (some centres unmarked) [DHCD 4CF3] | 15 ± 1 | 5 | 3200 ± 200 | – | – | –
11 | C=CC1C[N+]2(Cc3c(F)cccc3F)CCC1C[C@H]2[C@H](O)c1ccnc2ccccc12 (some centres unmarked) [CD 2,6F] | 7.7 ± 0.5 | 0.77 | 9900 ± 400 | – | – | –
12 | C=CC1C[N+]2(Cc3cccc(F)c3)CCC1C[C@@H]2[C@@H](O)c1ccnc2ccccc12 (some centres unmarked) [CN 3F] | 13 ± 0.4 | 2.1 | 6100 ± 300 | – | – | –
13 | C=CC1C[N+]2(Cc3ccc(F)c(F)c3)CCC1C[C@@H]2[C@@H](O)c1ccnc2ccccc12 (some centres unmarked) [CN 3,4F] | 14 ± 0.2 | 2.3 | 6100 ± 200 | – | – | –
14 | C=CC1C[N+]2(Cc3ccc(C(F)(F)F)cc3)CCC1C[C@H]2[C@H](O)c1ccnc2ccccc12 (some centres unmarked) [CD 4CF3] | 21 ± 1 | 11 | 2000 ± 100 | – | – | –
15 | C=CC1C[N+]2(Cc3ccc(OC(F)(F)F)cc3)CCC1C[C@H]2[C@H](O)c1ccnc2ccccc12 (some centres unmarked) [CD 4OCF3] | 7.3 ± 0.5 | 0.96 | 7600 ± 500 | – | – | –
16 | C=CC1C[N+]2(Cc3cccc(OC(F)(F)F)c3)CCC1C[C@@H]2[C@@H](O)c1ccnc2ccccc12 (some centres unmarked) [CN 3OCF3, N-(3-trifluoromethoxybenzyl)cinchoninium bromide] | 41 ± 2 | 8.7 | 4700 ± 200 | – | – | –
17 | C=CC1C[N+]2(Cc3ccccc3F)CCC1C[C@H]2[C@H](O)c1ccnc2ccccc12 (some centres unmarked) [CD 2F] | 33 ± 1 | 40 | 820 ± 30 | – | – | –
18 | C=CC1C[N+]2(Cc3ccc(Br)cc3F)CCC1C[C@@H]2[C@@H](O)c1ccnc2ccccc12 (some centres unmarked) [CN 2F-4Br, N-(2-fluoro-4-bromobenzyl)cinchoninium bromide] | 16 ± 1 | 2.9 | 5500 ± 300 | – | – | –
19 | CCC1C[N+]2(Cc3ccc(OC(F)(F)F)cc3)CCC1C[C@@H]2[C@@H](O)c1ccnc2ccccc12 (some centres unmarked) [DHCN 4OCF3, N-(4-trifluoromethoxybenzyl)-10,11-dihydrocinchoninium bromide] | 22 ± 1 | 10 | 2200 ± 100 | – | – | –

Row | SMILES | Ki [1] [µM] | SI, selective index Ki(AChE)/Ki(BChE) [2] | Ki [2, 3] [nM] | times higher affinity of BChE for DHCN over DHCD ([2]; unsubstituted 10,11-dihydro compounds) | Ki ([2]; stated in text as around) [nM] | Stereoselectivity Ki(CN/CD) BChE ([2]; ratio > 1: higher affinity toward CD over CN pseudo-enantiomer)
20 | C=CC1C[N+]2(Cc3ccc(C(F)(F)F)cc3)CCC1C[C@@H]2[C@@H](O)c1ccnc2ccccc12 (some centres unmarked) [CN 4CF3] | 31 ± 1 | 5.2 | 6000 ± 300 | – | – | –
21 | C=CC1C[N+]2(Cc3c(F)cccc3Cl)CCC1C[C@H]2[C@H](O)c1ccnc2ccccc12 (some centres unmarked) [CD 2Cl-6F, N-(2-chloro-6-fluorobenzyl)cinchonidinium bromide] | 9.9 ± 0.8 | 1.9 | 5000 ± 300 | – | – | –
22 | C=CC1C[N+]2(Cc3cccc(OC(F)(F)F)c3)CCC1C[C@H]2[C@H](O)c1ccnc2ccccc12 (some centres unmarked) [CD 3OCF3] | 8.2 ± 1.1 | 1.1 | 7400 ± 400 | – | – | –
23 | C=CC1C[N+]2(Cc3cccc(F)c3F)CCC1C[C@H]2[C@H](O)c1ccnc2ccccc12 (some centres unmarked) [CD 2,3F] | 19 ± 1 | 25 | 750 ± 30 | – | – | –
24 | C=CC1C[N+]2(Cc3c(F)cccc3C(F)(F)F)CCC1C[C@H]2[C@H](O)c1ccnc2ccccc12 (some centres unmarked) [CD 2F-6CF3, N-(2-fluoro-6-trifluoromethylbenzyl)cinchonidinium bromide] | 35 ± 4 | 6.1 | 5700 ± 600 | – | – | –
25 | C=CC1C[N+]2(Cc3ccccc3)CCC1C[C@H]2[C@H](O)c1ccnc2ccccc12 (some centres unmarked) [CD Bzl] | 15 ± 2 | 200 | 75 ± 7 | – | – | –
26 | C=CC1C[N+]2(Cc3ccc(OC(F)(F)F)cc3)CCC1C[C@@H]2[C@@H](O)c1ccnc2ccccc12 (some centres unmarked) [CN 4OCF3] | 19 ± 2 | 2.4 | 7800 ± 300 | – | – | –
27 | C=CC1C[N+]2(Cc3cccc(C(F)(F)F)c3)CCC1C[C@H]2[C@H](O)c1ccnc2ccccc12 (some centres unmarked) [CD 3CF3] | 34 ± 1 | 14 | 2400 ± 100 | – | – | –
28 | CCC1C[N+]2(Cc3ccc(C(F)(F)F)cc3)CCC1C[C@@H]2[C@@H](O)c1ccnc2ccccc12 (some centres unmarked) [DHCN 4CF3] | 18 ± 1 | 9 | 1600 ± 100 | – | – | –
29 | CCC1C[N+]2(Cc3cccc(C(F)(F)F)c3)CCC1C[C@H]2[C@H](O)c1ccnc2ccccc12 (some centres unmarked) [DHCD 3CF3, N-(3-trifluoromethylbenzyl)-10,11-dihydrocinchonidinium bromide] | 25 ± 1 | 18 | 1400 ± 100 | – | – | –
30 | C=CC1C[N+]2(Cc3cc(F)cc(F)c3)CCC1C[C@@H]2[C@@H](O)c1ccnc2ccccc12 (some centres unmarked) [CN 3,5F] | 34 ± 3 | 5.4 | 6300 ± 200 | – | – | –
31 | CCC1C[N+]2(Cc3cccc(C(F)(F)F)c3)CCC1C[C@@H]2[C@@H](O)c1ccnc2ccccc12 (some centres unmarked) [DHCN 3CF3] | 41 ± 2 | 34 | 1200 ± 50 | – | – | –
32 | C=CC1C[N+]2(Cc3c(F)cccc3Cl)CCC1C[C@@H]2[C@@H](O)c1ccnc2ccccc12 (some centres unmarked) [CN 2Cl-6F, N-(2-chloro-6-fluorobenzyl)cinchoninium bromide] | 17 ± 1 | 14 | 1200 | – | – | –
33 | CCC1C[N+]2(Cc3ccc(F)cc3)CCC1C[C@H]2[C@H](O)c1ccnc2ccccc12 (some centres unmarked) [DHCD 4F, N-(4-fluorobenzyl)-10,11-dihydrocinchonidinium bromide] | 31 ± 1 | 8 | 4300 ± 200 | – | – | –
34 | C=CC1C[N+]2(Cc3ccc(F)cc3)CCC1C[C@H]2[C@H](O)c1ccnc2ccccc12 (some centres unmarked) [CD 4F] | 69 ± 3 | 46 | 1500 ± 100 | – | – | –
35 | C=CC1C[N+]2(Cc3cc(F)cc(F)c3)CCC1C[C@H]2[C@H](O)c1ccnc2ccccc12 (some centres unmarked) [CD 3,5F] | 10 ± 1 | 123 | 81 ± 10 | – | ~76 | 78
36 | C=CC1C[N+]2(Cc3ccccc3F)CCC1C[C@@H]2[C@@H](O)c1ccnc2ccccc12 (some centres unmarked) [CN 2F] | 80 ± 2 | 33 | 2400 ± 100 | – | – | –
37 | CCC1C[N+]2(Cc3ccc(OC(F)(F)F)cc3)CCC1C[C@H]2[C@H](O)c1ccnc2ccccc12 (some centres unmarked) [DHCD 4OCF3, N-(4-trifluoromethoxybenzyl)-10,11-dihydrocinchonidinium bromide] | 17 ± 1 | 3 | 5900 ± 200 | – | – | –
38 | CCC1C[N+]2(Cc3cccc(OC(F)(F)F)c3)CCC1C[C@@H]2[C@@H](O)c1ccnc2ccccc12 (some centres unmarked) [DHCN 3OCF3, N-(3-trifluoromethoxybenzyl)-10,11-dihydrocinchoninium bromide] | 68 ± 1 | 52 | 1300 ± 500 | – | – | –
